Earlier results as cited in patent US12458653B2, “Cannabis based therapeutic and method of use” (priority 2018, dated 2025).
Where two headings read alike, the source gives them in different places.

How the values were obtained:
[1] = extensive liver metabolism
[2] = test system: chemotherapy-induced nausea and vomiting; conditions: versus available anti-emetic regimens

CCCCCc1cc(O)c2c(c1)OC(C)(C)[C@@H]1CCC(CO)=C[C@@H]21 [11-OH-THC]
peak concentration in the urine (after 3 hours, smoking approximately 27 mg of Δ9-THC): 77.0 ± 329.7 ng/mL | peak concentration in the urine (within two hours after smoking approximately 27 mg of Δ9-THC in a cigarette): 3.2 to 53.3 ng/mL

CCCCCc1cc(O)c2c(c1)OC(C)(C)[C@@H]1CCC(C)=C[C@@H]21 [Δ9-THC, delta-9 tetrahydrocannabinol]
oral bioavailability of Δ9-THC [1]: 4-12% | half-life (frequent users): 120 to 312 h | half-life (infrequent user): 31.2 h | average plasma clearance rate (men): 14.9 ± 3.7 L/h | plasma clearance rate (naïve cannabis users): approximately 36 L/hour | plasma clearance rate (regular cannabis users): 60 L/h | average plasma clearance rate (women): 11.8 ± 3 L/h

CCCCCc1cc(O)c2c(c1)OC(C)(C)[C@@H]1CCC(C)=C[C@@H]21 [Dronabinol]
relief of chemotherapy-induced nausea and vomiting [2]: little relief over available anti-emetic regimens

CCCCCc1cc(O)c2c(c1)OC(C)(C)[C@@H]1CCC(C(=O)O)=C[C@@H]21 [THC—COOH]
peak concentration in the urine (after 4 hours, smoking approximately 27 mg of Δ9-THC): 179.4 ng/mL | urinary excretion half-life (after seven days of monitoring): approximately 30 hours | time THC-COOH is detectable in plasma (after smoking a cigarette containing 16-34 mg of Δ9-THC): 2 to 7 days | urinary excretion half-life (after twelve days of monitoring): 44 to 60 h | initial concentration of THC-COOH in serum (clinical study among 52 volunteers): 14 to 49 ng/mL | THC-COOH detection time (single chronic user): 25 days
